Measured values published in patent US20220119840A1, “CLOSED-ENDED DNA (CEDNA) AND USE IN METHODS OF REDUCING GENE OR NUCLEIC ACID THERAPY RELATED IMMUNE RESPONSE” (Generation Bio Co., priority 2019, published 2022).
“Also recorded” adds a separate entry of the source. Read-outs that look alike come from different tables or passages of the source.

Experiments:
IRF pathway = assay: THP-1 Dual reporter assay, interferon (IRF pathway) induction, Quanti-Luc; assay type: cell-based; details: for effect on ceDNA-induced interferon induction: inhibitor pretreatment 2 h, 0.625-2.5 μM; for concentration giving maximal inhibition of interferon induction: doses 0.625, 1.25, 2.5 μM
[1] = system: IFN-α, IFN-γ, IL-6, IP-10, IL-18, IL-1β, MCP-1, and TNF-alpha; assay: ProcartaPlex multiplex cytokine immunoassay after TTX-9 ceDNA with inflammasome inhibitor pre-treatment; assay type: in vivo; details: C57bL mice, inhibitor i.p. 12-16 h and 1 h before 0.5 mg/kg ceDNA (TTX9-LNP) IV
Factor IX deficient mice = assay: Factor IX plasma ELISA, ceDNA encoding Factor IX and A151; assay type: in vivo
human TLR9 = target: T1, human TLR9 (Homo sapiens, UniProt Q9NR96); assay: HEK-BLUE.hTLR9 NF-κB/SEAP assay (Quanti-BLUE); assay type: cell-based; details: A151 10 μM, 3 h pretreatment, 300 ng ceDNA
T1 construct: host or cells: HEK-293 (HEK-BLUE.hTLR9 cells)
T1 sequence (Q9NR96 26-1032): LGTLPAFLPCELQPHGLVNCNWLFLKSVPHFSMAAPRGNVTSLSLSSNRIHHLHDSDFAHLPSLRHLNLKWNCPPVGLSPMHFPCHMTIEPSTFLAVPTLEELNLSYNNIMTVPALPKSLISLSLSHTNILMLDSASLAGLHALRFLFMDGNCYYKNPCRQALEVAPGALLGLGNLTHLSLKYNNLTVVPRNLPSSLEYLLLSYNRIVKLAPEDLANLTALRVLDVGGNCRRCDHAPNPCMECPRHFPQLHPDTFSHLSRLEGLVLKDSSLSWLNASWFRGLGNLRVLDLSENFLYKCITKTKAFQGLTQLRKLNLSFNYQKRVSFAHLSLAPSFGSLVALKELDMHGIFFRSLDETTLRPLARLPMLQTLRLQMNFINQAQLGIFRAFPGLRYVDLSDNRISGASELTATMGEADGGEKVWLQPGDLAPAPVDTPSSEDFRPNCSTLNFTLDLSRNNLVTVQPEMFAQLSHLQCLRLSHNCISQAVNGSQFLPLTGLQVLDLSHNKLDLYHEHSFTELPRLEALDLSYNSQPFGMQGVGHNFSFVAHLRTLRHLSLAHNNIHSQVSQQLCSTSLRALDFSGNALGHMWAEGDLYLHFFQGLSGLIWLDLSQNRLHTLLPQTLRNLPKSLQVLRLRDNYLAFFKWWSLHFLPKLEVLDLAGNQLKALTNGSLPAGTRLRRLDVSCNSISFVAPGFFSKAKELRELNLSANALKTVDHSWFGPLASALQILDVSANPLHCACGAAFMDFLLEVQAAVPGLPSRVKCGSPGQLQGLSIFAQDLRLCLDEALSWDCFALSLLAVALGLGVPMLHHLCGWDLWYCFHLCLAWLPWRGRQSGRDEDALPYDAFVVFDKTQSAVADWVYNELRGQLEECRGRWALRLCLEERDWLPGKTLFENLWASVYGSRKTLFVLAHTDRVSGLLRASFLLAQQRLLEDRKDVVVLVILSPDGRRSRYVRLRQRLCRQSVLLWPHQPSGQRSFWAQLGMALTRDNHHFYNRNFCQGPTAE

Row | Molecule | effect on ceDNA-induced interferon induction (IRF pathway) | levels of IL-18 [1] | concentration giving maximal inhibition of interferon induction (IRF pathway) | also measured
1 | O=C(NCCCNc1nc(Nc2cccc(NC(=O)N3CCCC3)c2)ncc1I)c1cccs1 [BX795, N-[3-[[5-Iodo-4-[[3-[(2-thienylcarbonyl)amino]propyl]amino]-2-pyrimidinyl]amino]phenyl]-1-pyrrolidinecarboxamide] | similarly reduce this interferon pathway activation; also recorded: abrogation of ceDNA-induced interferon induction |  |  | 
2 | CC(C)(O)c1coc(S(=O)(=O)NC(=O)Nc2c3c(cc4c2CCC4)CCC3)c1 [MCC950] |  | significant reduction of IFN-γ; also recorded: significantly reduced |  | levels of IFNγ [1]: significant reduction of IFN-γ; also recorded: significantly reduced; levels of IP-10 [1]: reduction in levels
3 | CO[C@H]1C[C@@H]2CC[C@@H](C)[C@@](O)(O2)C(=O)C(=O)N2CCCC[C@H]2C(=O)O[C@H]([C@H](C)C[C@@H]2CC[C@@H](O)[C@H](OC)C2)CC(=O)[C@H](C)/C=C(\C)[C@@H](O)[C@@H](OC)C(=O)[C@H](C)C[C@H](C)/C=C/C=C/C=C/1C [RAPA, rapamycin] |  |  |  | RAPA solubility in the dispersed nanocarrier phase (PLA and PLA-PEG as nanocarrier polymers): 8.4 % wt/wt; RAPA solubility in the dispersed nanocarrier phase (PLGA and PLA-PEG as nanocarrier polymers): 7.2 % wt/wt
4 | CCO[C@@H]1OC(=O)C[C@@H]1NC(=O)[C@@H]1CCCN1C(=O)[C@@H](NC(=O)c1ccc(N)c(Cl)c1)C(C)(C)C [VX765, (S)-1-((S)-2-{[1-(4-amino-3-chloro-phenyl)-methanoyl]-amino}-3,3-dimethyl-butanoyl)-pyrrolidine-2-carboxylic acid ((2R,3S)-2-ethoxy-5-oxo-tetrahydro-furan-3-yl)-amide] |  | reduced |  | 
5 | A151: oligonucleotide TTAGGGTTAGGGTTAGGGTTAGGG (SEQ ID NO:892) | similarly reduce this interferon pathway activation; also recorded: dose-dependency of interferon induction inhibition; also recorded: concentration-dependent |  | 2.5 µM | cytokine secretion upon re-dose (Factor IX deficient mice; versus ceDNA vector encoding only Factor IX): less activation of cytokine secretion; expression of factor IX (Factor IX deficient mice; versus ceDNA vector expressing only Factor IX): increased and/or sustained expression of factor IX; ceDNA-stimulated NF-κB induction in presence of inhibitor (human TLR9): reduced the ceDNA-stimulated NF-κB induction to the same degree as methylation of CpG; also recorded: minimal levels of NF-κB induction
6 | AS1411: TLR9 inhibitory oligonucleotide GGTGGTGGTGGTTGTGGTGGTGGTGG, SEQ ID NO: 903 (chemistry not given here) | dose-dependency of interferon induction inhibition; also recorded: concentration-dependent |  | 2.5 µM | 
